# Laboratory results published in patent US6548543B1, “Remedies or preventives containing cyclopentenone compounds as the active ingredient” (Takara Shuzo Co., Ltd., priority 1998, dated 2003).
# What was measured:
# [1] = Single oral dose toxicity; type: in vivo; conditions: mouse, oral, single dosage of 100 mg/kg
# Method: No toxicity is observed when a physiologically effective amount of the cyclopentenone derivative or an optical isomer thereof, or a salt thereof obtained according to the present invention is administered.
# NK cells = type: in vivo, ddY mice; conditions: mice administered intraperitoneally
# Method: ddY mice (female, 7 weeks old) were purchased from Japan SLC and pre-bred for 1 week before using in experiments.
# 1×10^6 Ehrlich ascites carcinoma cells were intraperitoneally inoculated to each mouse. 10 mg/kg of cyclopentenone, 30 mg/kg of GM or 10 mg/kg of dipropionylcyclopentenone was intraperitoneally administered to the mouse on the day after the inoculation. Saline was administered to a control mouse.
# A spleen was taken out from the mouse 10 days after the inoculation with cancer cells, finely minced and suspended in RPMI-1640 medium containing 10% FCS (HyClone) to obtain a single cell suspension. Adhesive cells adhered to a plastic Petri dish were removed from the cell suspension and non-adhesive cells were used as NK cells.
# The NK cells were suspended in RPMI-1640 medium containing 10% FCS at a concentration of 6×10^6/ml. 100 μl/well of the suspension was seeded into a microtiter plate.
# Target cells were prepared as follows. 3700 kBq of ^51Cr (Amersham) was added to 1×10^6 YAC-1 cells (Dainippon Pharmaceutical). The cells were cultured at 37° C. for 1 hour for labeling. The labeled cells were washed twice and then suspended in RPMI-1640 medium containing 10% FCS at a concentration of 2×10^5 cells/ml. […] The radioactivity (experimental value) was measured using an auto gamma counter.
# 100 μl of the culture medium was added to the reaction system in place of the NK cells and the radioactivity was measured in order to measure the radioactivity spontaneously released from the target cells (control value).
# Furthermore, the radioactivity released into the supernatant when 1% Triton (Nacalai Tesque) was added to the reaction system to lyse the 51Cr-labeled YAC-1 cells was measured in order to measure the total radioactivity contained in the reaction system (total radioactivity value).
# The cytotoxicity (%) specifically mediated by the NK cells can be determined according to the following equation.
# Cytotoxicity (%)=[(experimental value−control value)/(total radioactivity value−control value)]×100
# [2] = system: spleen lymphocytes stimulated with Con A; test: Lymphocyte blastogenesis stimulated with Con A, 3H-thymidine uptake; type: cell-based, ddY mouse; conditions: 10 μM
# Method: (1) A spleen was taken out from ddY mouse (male, 7 weeks old, purchased from Japan SLC), finely minced and suspended in RPMI-1640 medium containing 10% FCS (HyClone) to obtain a single cell suspension. The cell suspension was seeded into a plastic Petri dish and cultured at 37° C. for 2 hours in a CO2 incubator to remove adhesive cells adhered to the dish. Non-adhesive cells were used as spleen lymphocytes. 200 μl of suspension of the spleen lymphocytes at a cell concentration of 2×10^6/ml was seeded into each well of a 96-well microtiter plate. Dipropionylcyclopentenone at a varying concentration was added to each well other than the control well. Furthermore, 5 μg of Con A (Nacalai Tesque) was added to each well. The plate was incubated at 37° C. for 1 day in a CO2 incubator. After incubation, 1 μCi of ^3H-thymidine was added to each well. After culturing for additional 1 day, the uptake into cells was measured using a liquid scintillation counter.
# FIG. 7 illustrates the relationship between the concentration of dipropionylcyclopentenone and the amount of ^3H-thymidine uptake. The horizontal axis represents dipropionylcyclopentenone concentration (μM) and the vertical axis represents the ^3H-thymidine uptake (CPM). The open bar represents the ^3H-thymidine uptake without stimulation.
# [3] = system: λ-carrageenan pedal edema; test: Carrageenan induced pedal edema; type: in vivo, Lewis rats; conditions: rat, 3 hours after carrageenan
# Method: Lewis rats (male, 9 weeks old, weighing about 250 g) were purchased from Seac Yoshitomi.
# Rats were fasted from 18 hours before the start of the experiments. Dipropionylcyclopentenone, dihexanoylcyclopentenone, di-2-hexenoylcyclopentenone, diisobutyrylcyclopentenone or dibenzoylcyclopentenone dissolved in olive oil (Nacalai Tesque) was orally administered to 4 rats per group at 1 or 10 mg/10 ml/kg.
# 100 μl of 1% λ-carrageenan (Wako Pure Chemical Industries) suspension in saline (Otsuka Pharmaceutical) was injected into the sole of right paw of a rat 0.5 hour after the administration of test substance to induce pedal edema. The volume of the right foot of the rat was measured using an instrument for measuring pedal volume (Ugo Basile) 3 hours after the injection with carrageenan. The measurements were expressed as the rate of increase calculated based on the volume of the right foot of each rat measured before the administration with carrageenan.
# FIG. 5 illustrate the relationship between the amount of cyclopentenone derivative administered and the rate of increase in edema in foot. The horizontal axis represents the dose […] and the vertical axis represents the rate of increase (%).
# [4] = system: delayed hypersensitivity pedal edema; test: Delayed hypersensitivity (DTH) with sheep erythrocytes; type: in vivo, C57BL/6 mice; conditions: once a day for 3 days
# Method: C57BL/6 mice (male, 7 weeks old, weighing about 25 g) were purchased from Japan SLC and pre-bred for 1 week before using in experiments.
# Sheep erythrocytes (Shimizu Laboratory Supplies) as raising antigens were washed three times with saline (Otsuka Pharmaceutical) and suspended in saline at a concentration of 1×10^9 cells/ml. 200 μl of the suspension was intraperitoneally injected into the mouse for sensitization with the antigen. 40 μl of similarly prepared antigen was injected to the sole of right paw 5 days after the sensitization for antigenic induction to induce pedal edema.
# Dipropionylcyclopentenone dissolved in saline at a varying concentration was intraperitoneally or orally administered to 5 mice per group once a day for 3 days from the day of sensitization with the antigen. The volume of the right foot of the mouse was measured using an instrument for measuring pedal volume (Ugo Basile) 2 days after the antigenic induction and used as an index of DTH. The measurements were expressed as the rate of increase calculated according to the following equation based on the volume of the right foot of each mouse measured before the antigenic induction.
# Rate of increase=(volume of right foot after antigenic induction−volume of right foot before antigenic induction)/volume of right foot before antigenic induction
smiles,measurement,setting,value
CCC(=O)OC1C=CC(=O)C1OC(=O)CC (centres unmarked),Death after single oral administration,[1],no death was observed
same,Activation of NK cells (statement),NK cells,Activation of NK cells was observed
same,Inhibition of proliferation of mouse lymphocytes stimulated with Con A (FIG. 7),[2],almost completely inhibited
same,Suppression of edema in foot (FIG. 5),[3]; 1 mg/kg oral,Tendency to suppress the edema in the foot
same,Suppression of edema in foot (FIG. 5),[3]; 10 mg/kg oral,significant suppression
same,"Suppression of edema in foot, DTH (FIG. 6)",[4]; 1 mg/kg intraperitoneal,Tendency to suppress the edema in the foot
same,"Suppression of edema in foot, DTH (FIG. 6)",[4]; 10 mg/kg intraperitoneal,significant suppression
same,"Suppression of edema in foot, DTH (FIG. 6)",[4]; 30 mg/kg oral,significant suppression
